Results published in patent US20050026785A1, “Novel phenyl-propargylether derivatives” (priority 2001, published 2005).

Tests used:
Type in all cases: in vivo
Plasmopara viticola [1] = assay: D-1b Residual-curative action against Plasmopara viticola on vines; conditions: test D-1b residual-curative, vine seedlings, untreated plants showed pathogen attack of 80-100%, read-out: inhibition of fungal infestation
Procedure: (§1) D-1: Action against Plasmopara viticola on vines
b) Residual-Curative Action
Vine seedlings are infected at the 4- to 5-leaf stage with a sporangia suspension of the fungus. After incubation for 24 hours in a humidity chamber at 95-100% relative humidity and +20° C., the infected plants are dried and sprayed with a spray mixture (0.02% active ingredient) prepared from a wettable powder formulation of the test compound. After the spray coating has dried, the treated plants are placed in the humidity chamber again. Fungus infestation is evaluated 6 days after infection.

Phytophthora [2] = assay: D-3a Residual-protective action against Phytophthora on potato plants; conditions: test D-3a residual-protective, potato plants (Bintje), untreated plants showed pathogen attack of 80-100%, read-out: inhibition of fungal infestation
Procedure: (§2) D-3: Action against Phytophthora on potato plants
(§3) a) Residual-protective action
2-3 week old potato plants (Bintje variety) are sprayed with a spray mixture (0.02% active ingredient) prepared from a wettable powder formulation of the test compound. After 48 hours, the treated plants are infected with a sporangia suspension of the fungus. Fungus infestation is evaluated after incubation of the infected plants for 4 days at 90-100% relative humidity and +20° C.

Phytophthora [3] = assay: D-3b Systemic action against Phytophthora on potato plants; conditions: test D-3b systemic (soil watering), potato plants (Bintje), untreated plants showed pathogen attack of 80-100%, read-out: inhibition of fungal infestation
Procedure: as §2
2-3 week old potato plants (Bintje variety) are watered with a spray mixture (0.02% active ingredient based on the volume of the soil) prepared from a wettable powder formulation of the test compound. […] After 48 hours, the treated plants are infected with a sporangia suspension of the fungus. Fungus infestation is evaluated after incubation of the infected plants for 4 days at 90-100% relative humidity and +20° C. Fungal infestation is effectively controlled with compounds of Tables 1 to 31.

Plasmopara viticola [4] = assay: D-1a Residual-protective action against Plasmopara viticola on vines; conditions: test D-1a residual-protective, vine seedlings, untreated plants showed pathogen attack of 80-100%, read-out: inhibition of fungal infestation
Procedure: as §1, §3
Vine seedlings are sprayed at the 4- to 5-leaf stage with a spray mixture (0.02% active ingredient) prepared from a wettable powder formulation of the test compound. After 24 hours, the treated plants are infected with a sporangia suspension of the fungus. Fungus infestation is evaluated after incubation for 6 days at 95-100% relative humidity and +20° C.

Phytophthora [5] = assay: D-2b Systemic action against Phytophthora on tomato plants; conditions: test D-2b systemic (soil watering), untreated plants showed pathogen attack of 80-100%, read-out: inhibition of fungal infestation
Procedure: (§4) D-2: Action against Phytophthora on tomato plants
After a cultivation period of 3 weeks, tomato plants are watered with a spray mixture (0.02% active ingredient based on the volume of the soil) prepared from a wettable powder formulation of the test compound. […] After 96 hours, the treated plants are infected with a sporangia suspension of the fungus. Fungus infestation is evaluated after incubation of the infected plants for 4 days at 90-100% relative humidity and +20° C.

Phytophthora [6] = assay: D-2a Residual-protective action against Phytophthora on tomato plants; conditions: test D-2a residual-protective, untreated plants showed pathogen attack of 80-100%, read-out: inhibition of fungal infestation
Procedure: as §4, §3
After a cultivation period of 3 weeks, tomato plants are sprayed with a spray mixture (0.02% active ingredient) prepared from a wettable powder formulation of the test compound. After 48 hours, the treated plants are infected with a sporangia suspension of the fungus. Fungus infestation is evaluated after incubation of the infected plants for 5 days at 90-100% relative humidity and +20° C.

Measured: inhibition at 200 ppm

C#CCOc1ccc(CCNC(=O)[C@@H](OCC#C)c2ccccc2)cc1OC [Compound E1.002, (S)-2-phenyl-N-[2-(3-methoxy-4-prop-2-ynyloxy-phenyl)-ethyl]-2-prop-2-ynyloxy-acetamide]
80 to 100%: all assays above

C#CCOc1ccc(CCNC(=O)[C@@H](OCC#C)c2ccc(Cl)cc2)cc1OC [Compound E1.011, (S)-2-(4-chloro-phenyl)-N-[2-(3-methoxy-4-prop-2-ynyloxy-phenyl)-ethyl]-2-prop-2-ynyloxy-acetamide]
80 to 100%: all assays above

CCC#CCOc1ccc(CCNC(=O)[C@@H](OCC)c2ccccc2)cc1OC [Compound E1.151]
80 to 100%: Phytophthora [5] | Phytophthora [6]
